US10987371B2 (priority 2017, dated 2021)

Experiments:
ZIKV PRVABC59 isolate = details: mouse, in vivo
Vero E6 cells = details: African green monkey
[1] = test system: ZIKV nonstructural protein 1 (NS1); type: cell-based
ZIKV PLCal_ZV [2] = assay: microbe, parasite or virus in culture; type: cell-based; details: Zika virus, Vero
ZIKV PLCal_ZV [3] = type: cell-based
in vivo = details: male, C57BL/6, mouse
[4] = in vivo
[5] = human
Ebola = details: mouse, in vivo; cited from earlier work

**Q.** Which results are given for `O=c1c(O[C@@H]2O[C@H](CO)[C@@H](O)[C@H](O)[C@H]2O)c(-c2ccc(O)c(O)c2)oc2cc(O)cc(O)c12` [Q3G, Quercetin-3-β-O-D-glucoside]?
**A.** average weight loss (ZIKV PRVABC59 isolate): ~20%; animals surviving the infection (ZIKV PRVABC59 isolate; ip, 50 mg/kg): 50%; cell viability (Vero E6 cells): 100%; concentrations with statistically significant reductions in NS1 [1]: ≥ 0.6 µM; EC50 (ZIKV PLCal_ZV [2]; read-out: EC50 against ZIKV PLCal_ZV): 1200 to 1300 nM; EC90 (ZIKV PLCal_ZV [2]; read-out: EC90 against ZIKV PLCal_ZV): ~1500 nM; concentration at which complete inhibition of cytopathic effects (CPE) was observed (ZIKV PLCal_ZV [3]): 6.9 µM; NOAEL (in vivo): 100 mg/kg; time within which all mice died ([4]; male, C57BL/6, mouse, ip, 400 mg/kg): ≤ 2 days; survival and signs of toxicity ([4]; mouse): without signs of toxicity; deaths ([4]; mouse, ip, 200 mg/kg): One mouse; weight loss of the surviving mice ([4]; mouse, ip, 200 mg/kg): ~15%; calculated maximum recommended starting dose (MRSD) [5]: 0.813 mg/kg; daily dose to start clinical trials [5]: 56.91 mg

**Q.** For `NC(=O)c1nc(F)c[nH]c1=O` [T-705], which “protection in IFNAR-/- mice” value (Ebola) is on record?
**A.** Its value is 100%.

**Q.** Which protection of mice (Ebola) does the source give for `CCN(CC)CCOc1ccc(C(=C(Cl)c2ccccc2)c2ccccc2)cc1` [clomiphene] here?
**A.** The protection of mice was 90%.

**Q.** With `CCC(CC)COC(=O)[C@H](C)N[P@](=O)(OC[C@H]1O[C@@](C#N)(c2ccc3c(N)ncnn23)[C@H](O)[C@@H]1O)Oc1ccccc1` [GS-5734] as the compound, how does the protection in mice (Ebola) read?
**A.** Its protection in mice is 100%.

**Q.** Which protection of mice (Ebola) does the source give for `CN(C)CCOc1ccc(/C(=C(/CCCl)c2ccccc2)c2ccccc2)cc1` [toremifene] here?
**A.** The protection of mice was 50%.
